Test results: ChEMBL document CHEMBL1201862, “PubChem BioAssay data set” (2004)
The source made the active and inactive calls.

Legend:
[1] = target: Intestinal-type alkaline phosphatase (Homo sapiens, UniProt P09923); assay: human intestinal alkaline phosphatase activators, dose response, biochemical, luminescence, uHTS hits (AID 463120); assay type: functional
[2] = target: T1, Tyrosine-protein phosphatase non-receptor type 22 (Homo sapiens, UniProt Q9Y2R2); assay: PTPN22 phosphatase inhibition, dose response, selectivity assay for STEP inhibitor project, biochemical (AID 624241); assay type: functional
T1 sequence (Q9Y2R2 whole entry): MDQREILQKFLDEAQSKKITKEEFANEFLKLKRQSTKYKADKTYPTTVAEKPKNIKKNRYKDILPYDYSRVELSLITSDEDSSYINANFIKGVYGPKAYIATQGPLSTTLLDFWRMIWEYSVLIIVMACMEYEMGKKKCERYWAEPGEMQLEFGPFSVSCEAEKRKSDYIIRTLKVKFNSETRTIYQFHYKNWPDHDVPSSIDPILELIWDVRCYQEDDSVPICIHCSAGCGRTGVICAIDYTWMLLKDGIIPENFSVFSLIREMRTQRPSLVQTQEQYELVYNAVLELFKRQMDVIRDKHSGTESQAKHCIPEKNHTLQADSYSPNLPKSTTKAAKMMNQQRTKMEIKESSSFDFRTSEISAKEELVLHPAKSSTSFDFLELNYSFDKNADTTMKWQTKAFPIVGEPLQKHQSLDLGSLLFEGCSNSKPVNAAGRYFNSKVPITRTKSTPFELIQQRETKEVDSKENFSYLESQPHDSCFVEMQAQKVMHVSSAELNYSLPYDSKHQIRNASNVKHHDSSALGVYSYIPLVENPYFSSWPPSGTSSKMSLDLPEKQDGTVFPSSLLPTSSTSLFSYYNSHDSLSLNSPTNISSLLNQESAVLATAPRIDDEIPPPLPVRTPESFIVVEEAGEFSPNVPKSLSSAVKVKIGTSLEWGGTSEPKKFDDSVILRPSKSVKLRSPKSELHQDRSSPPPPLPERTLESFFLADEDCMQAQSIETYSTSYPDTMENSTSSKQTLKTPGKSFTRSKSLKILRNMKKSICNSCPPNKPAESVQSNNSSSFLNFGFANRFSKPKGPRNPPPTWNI

[3] = target: T2, Dual specificity protein phosphatase 6 (Rattus norvegicus, UniProt Q64346); assay type: functional;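 further: confirmatory in vitro dose-response testing of MKP-3 inhibition; recombinant His-tagged MKP-3 made in E. coli BL21 with OMFP substrate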
T2 sequence (Q64346 whole entry): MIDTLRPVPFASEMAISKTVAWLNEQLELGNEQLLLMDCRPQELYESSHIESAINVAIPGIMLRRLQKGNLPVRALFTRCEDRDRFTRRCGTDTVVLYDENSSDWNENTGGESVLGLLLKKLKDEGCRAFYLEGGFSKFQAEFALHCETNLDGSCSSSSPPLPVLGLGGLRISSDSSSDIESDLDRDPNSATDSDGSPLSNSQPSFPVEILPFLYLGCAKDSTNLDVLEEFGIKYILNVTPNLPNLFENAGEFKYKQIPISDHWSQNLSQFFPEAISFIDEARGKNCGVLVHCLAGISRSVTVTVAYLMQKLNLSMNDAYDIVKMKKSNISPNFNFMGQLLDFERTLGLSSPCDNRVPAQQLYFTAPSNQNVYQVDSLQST

[4] = target: T3, Tyrosine-protein phosphatase non-receptor type 7 (Homo sapiens, UniProt P35236); assay: redox-dependent HePTP inhibition, mechanism study, biochemical, fluorescence (AID 2068); assay type: functional
T3 sequence (P35236 whole entry): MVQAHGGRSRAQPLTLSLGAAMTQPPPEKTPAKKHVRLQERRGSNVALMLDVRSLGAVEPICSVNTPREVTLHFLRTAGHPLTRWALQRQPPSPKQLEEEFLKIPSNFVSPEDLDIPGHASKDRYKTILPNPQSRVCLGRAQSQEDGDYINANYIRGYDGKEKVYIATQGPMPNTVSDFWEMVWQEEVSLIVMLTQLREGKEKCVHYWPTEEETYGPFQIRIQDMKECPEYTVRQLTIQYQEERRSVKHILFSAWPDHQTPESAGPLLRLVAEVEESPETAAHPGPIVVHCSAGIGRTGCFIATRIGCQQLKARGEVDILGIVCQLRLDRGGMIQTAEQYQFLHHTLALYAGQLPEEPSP

[5] = target: Tyrosine-protein phosphatase non-receptor type 5 (Homo sapiens, UniProt P54829); assay: STEP phosphatase inhibitors, confirmation, biochemical, fluorescence intensity, uHTS hits (AID 602372); assay type: functional; settings: read-out: IC50_Mean
[6] = target: Tyrosine-protein phosphatase non-receptor type 11 (Homo sapiens, UniProt Q06124); assay: SHP2 phosphatase inhibition, dose response, selectivity assay for STEP inhibitor project, biochemical (AID 602367); assay type: functional; settings: read-out: IC50_Mean
[7] = target: T1, Tyrosine-protein phosphatase non-receptor type 22; assay: SAR LYP1 Fluorescent Assay using OMFP substrate for In Vitro dose response studies - Set 3. [Related pubchem assays (depositor defined):AID1779, AID1784, AID2140, AID2686]; assay type: functional
[8] = target: T4, Dual specificity protein phosphatase 3 (Homo sapiens, UniProt P51452); assay: SAR VHR1 Fluorescent Assay for In Vitro dose response studies Set 2. [Related pubchem assays (depositor defined):AID1654, AID1661, AID1878]; assay type: functional
[9] = target: T3, Tyrosine-protein phosphatase non-receptor type 7; assay: HePTP (PTPN7) phosphatase inhibitor potency, SAR follow-up, biochemical, set 2 (AID 449736); assay type: functional
[10] = target: T1, Tyrosine-protein phosphatase non-receptor type 22; assay: LYP (PTPN22) phosphatase inhibitor potency, SAR follow-up, biochemical, pCAP fluorogenic substrate, fluorescence, set 3 (AID 449727); assay type: functional
[11] = target: T4, Dual specificity protein phosphatase 3; assay: VHR phosphatase inhibition, dose response, selectivity assay for STEP inhibitor project, biochemical (AID 602374); assay type: functional; settings: read-out: IC50_Mean
[12] = target: Tyrosine-protein phosphatase non-receptor type 12 (Homo sapiens, UniProt Q05209); assay: SAR Selectivity Analysis of small molecule inhibitors of PEST using pCAP in a fluorescence assay. [Related pubchem assays (depositor defined):AID1779, AID1784, AID2135]; assay type: functional
Cannabinoid receptor 2 [13] = target: T5, Cannabinoid receptor 2 (Homo sapiens, UniProt P34972); assay: SAR analysis of antagonists of the Cannabinoid Receptor 2 using an Image-Based Assay. [Related pubchem assays (depositor defined):AID2013, AID2026]; assay type: functional
Cannabinoid receptor 2 [14] = target: T5, Cannabinoid receptor 2; assay: SAR analysis of agonists of the Cannabinoid Receptor 2 using an Image-Based Assay. [Related pubchem assays (depositor defined):AID2013, AID2026]; assay type: functional
[15] = target: Induced myeloid leukemia cell differentiation protein Mcl-1 (Homo sapiens, UniProt Q07820); assay type: functional
Cannabinoid receptor 1 [16] = target: T6, Cannabinoid receptor 1 (Homo sapiens, UniProt P21554); assay: SAR analysis of agonists of the Cannabinoid Receptor 1 using an Image-Based Assay - Set 2. [Related pubchem assays (depositor defined):AID2013, AID2026]; assay type: functional
[17] = target: T7, G-protein coupled receptor 35 (Homo sapiens, UniProt Q9HC97); assay: SAR analysis of Antagonists of the GPR35 Receptor using an Image-Based Assay - Set 3. [Related pubchem assays (depositor defined):AID2013, AID2026]; assay type: functional
[18] = target: T8, G-protein coupled receptor 55 (Homo sapiens, UniProt Q9Y2T6); assay: GPR55 antagonists blocking LPI-driven arrestin recruitment, primary screen, imaging, U2OS, beta-arrestin-GFP, LPI agonist (AID 2013); assay type: functional;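 further: antagonist potency measured as reduced agonist-driven arrestin aggregation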
Cannabinoid receptor 2 [19] = target: T5, Cannabinoid receptor 2; assay: SAR analysis of antagonists of the Cannabinoid Receptor 2 using an Image-Based Assay - Set 3. [Related pubchem assays (depositor defined):AID2013, AID2026]; assay type: functional
Cannabinoid receptor 1 [20] = target: T6, Cannabinoid receptor 1; assay: SAR analysis of antagonists of the Cannabinoid Receptor 1 using an Image-Based Assay - Set 4. [Related pubchem assays (depositor defined):AID2013, AID2026]; assay type: functional
[21] = target: T8, G-protein coupled receptor 55; assay: SAR Analysis of Selective Antagonists of GPR55 using an Image-Based Assay - Set 4. [Related pubchem assays (depositor defined):AID2013, AID2026]; assay type: functional
Cannabinoid receptor 2 [22] = target: T5, Cannabinoid receptor 2; assay: SAR analysis of agonists of the Cannabinoid Receptor 2 using an Image-Based Assay - Set 3. [Related pubchem assays (depositor defined):AID2013, AID2026]; assay type: functional
[23] = target: T7, G-protein coupled receptor 35; assay: SAR analysis of Agonists of the GPR35 Receptor using an Image-Based Assay - Set 2. [Related pubchem assays (depositor defined):AID2013, AID2026]; assay type: functional
[24] = target: T8, G-protein coupled receptor 55; assay: GPR55 antagonist potency of analogs, SAR follow-up, imaging, U2OS, beta-arrestin-GFP, LPI agonist, set 2 (AID 2820); assay type: functional
Caspase-6 = target: T9, Caspase-6 (Homo sapiens, UniProt P55212); assay: human caspase-6 inhibitors, dose response, biochemical, VEID-R110 fluorescence, cherry-pick (AID 720632)
T9 sequence (P55212 whole entry): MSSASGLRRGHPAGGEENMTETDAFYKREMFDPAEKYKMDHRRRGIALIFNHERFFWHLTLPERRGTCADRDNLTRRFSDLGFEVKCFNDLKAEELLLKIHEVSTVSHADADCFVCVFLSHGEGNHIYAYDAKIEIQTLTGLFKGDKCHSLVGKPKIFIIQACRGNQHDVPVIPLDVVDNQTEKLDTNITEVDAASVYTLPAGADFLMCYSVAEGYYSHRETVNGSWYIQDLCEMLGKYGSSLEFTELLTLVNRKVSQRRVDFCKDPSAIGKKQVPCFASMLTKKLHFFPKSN

Cannabinoid receptor 1 [25] = target: T6, Cannabinoid receptor 1; assay: SAR analysis of antagonists of the Cannabinoid Receptor 1 using an Image-Based Assay - Set 2. [Related pubchem assays (depositor defined):AID2013, AID2026]; assay type: functional

T5 sequence (P34972 whole entry): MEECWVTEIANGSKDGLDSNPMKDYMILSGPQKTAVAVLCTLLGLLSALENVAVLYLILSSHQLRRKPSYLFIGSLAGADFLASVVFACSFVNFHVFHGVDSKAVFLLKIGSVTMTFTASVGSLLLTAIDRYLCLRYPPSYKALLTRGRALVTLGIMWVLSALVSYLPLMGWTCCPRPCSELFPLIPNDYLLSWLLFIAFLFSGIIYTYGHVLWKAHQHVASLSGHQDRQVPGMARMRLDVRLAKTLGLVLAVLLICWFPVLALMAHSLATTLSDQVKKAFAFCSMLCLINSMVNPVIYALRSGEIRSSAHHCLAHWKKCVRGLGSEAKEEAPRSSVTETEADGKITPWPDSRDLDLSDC
T6 sequence (P21554 whole entry): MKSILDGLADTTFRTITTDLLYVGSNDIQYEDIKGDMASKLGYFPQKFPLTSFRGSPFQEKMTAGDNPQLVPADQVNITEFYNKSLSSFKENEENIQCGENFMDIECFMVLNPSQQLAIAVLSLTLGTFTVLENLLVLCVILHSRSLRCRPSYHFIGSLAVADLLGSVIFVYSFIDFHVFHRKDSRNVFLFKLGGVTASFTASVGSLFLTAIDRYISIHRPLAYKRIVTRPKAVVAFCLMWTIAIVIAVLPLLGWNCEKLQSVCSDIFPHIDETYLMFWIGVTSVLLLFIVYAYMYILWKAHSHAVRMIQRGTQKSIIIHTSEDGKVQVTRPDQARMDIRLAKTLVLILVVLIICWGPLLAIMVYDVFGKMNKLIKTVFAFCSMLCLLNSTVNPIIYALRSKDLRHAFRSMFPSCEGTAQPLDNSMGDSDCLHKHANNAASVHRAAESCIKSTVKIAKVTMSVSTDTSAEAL
T8 sequence (Q9Y2T6 whole entry): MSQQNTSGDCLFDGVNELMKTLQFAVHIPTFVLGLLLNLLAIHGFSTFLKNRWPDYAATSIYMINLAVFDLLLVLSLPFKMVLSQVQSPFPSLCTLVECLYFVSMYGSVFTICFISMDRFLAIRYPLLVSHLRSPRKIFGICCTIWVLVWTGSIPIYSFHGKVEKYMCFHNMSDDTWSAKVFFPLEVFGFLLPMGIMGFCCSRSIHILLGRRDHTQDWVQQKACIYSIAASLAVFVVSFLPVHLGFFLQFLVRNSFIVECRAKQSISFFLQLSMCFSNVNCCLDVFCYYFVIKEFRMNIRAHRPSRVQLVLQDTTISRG
T4 sequence (P51452 whole entry): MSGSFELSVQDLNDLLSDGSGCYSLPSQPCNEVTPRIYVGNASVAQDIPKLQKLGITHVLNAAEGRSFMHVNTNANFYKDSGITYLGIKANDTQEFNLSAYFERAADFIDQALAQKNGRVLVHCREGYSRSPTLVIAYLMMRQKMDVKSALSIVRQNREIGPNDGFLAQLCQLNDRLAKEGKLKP
Sequence of Tyrosine-protein phosphatase non-receptor type 11 (Q06124 whole entry): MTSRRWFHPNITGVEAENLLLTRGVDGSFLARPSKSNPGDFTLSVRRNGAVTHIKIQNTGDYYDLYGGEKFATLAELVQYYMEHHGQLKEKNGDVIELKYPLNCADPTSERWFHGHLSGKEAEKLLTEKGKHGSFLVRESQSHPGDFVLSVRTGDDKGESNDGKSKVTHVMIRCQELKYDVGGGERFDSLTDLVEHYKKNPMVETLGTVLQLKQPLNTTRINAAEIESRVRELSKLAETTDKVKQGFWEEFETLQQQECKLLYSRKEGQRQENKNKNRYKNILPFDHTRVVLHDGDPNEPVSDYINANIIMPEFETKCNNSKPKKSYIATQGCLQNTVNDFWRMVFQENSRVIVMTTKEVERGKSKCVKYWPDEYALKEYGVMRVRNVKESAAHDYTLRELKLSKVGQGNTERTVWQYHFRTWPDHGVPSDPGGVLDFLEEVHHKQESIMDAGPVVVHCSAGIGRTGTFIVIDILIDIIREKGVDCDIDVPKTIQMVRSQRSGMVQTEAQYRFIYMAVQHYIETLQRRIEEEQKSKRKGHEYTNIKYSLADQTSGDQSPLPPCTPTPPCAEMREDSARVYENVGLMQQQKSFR
T7 sequence (Q9HC97 whole entry): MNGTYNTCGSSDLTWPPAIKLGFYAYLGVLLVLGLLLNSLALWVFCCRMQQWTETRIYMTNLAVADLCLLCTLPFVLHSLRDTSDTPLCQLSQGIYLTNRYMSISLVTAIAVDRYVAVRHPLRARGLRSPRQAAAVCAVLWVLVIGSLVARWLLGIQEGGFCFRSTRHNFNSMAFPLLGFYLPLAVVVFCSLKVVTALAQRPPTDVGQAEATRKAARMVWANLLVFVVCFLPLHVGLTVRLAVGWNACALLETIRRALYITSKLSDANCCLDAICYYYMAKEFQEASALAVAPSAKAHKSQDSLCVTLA
Sequence of Tyrosine-protein phosphatase non-receptor type 5 (P54829 whole entry): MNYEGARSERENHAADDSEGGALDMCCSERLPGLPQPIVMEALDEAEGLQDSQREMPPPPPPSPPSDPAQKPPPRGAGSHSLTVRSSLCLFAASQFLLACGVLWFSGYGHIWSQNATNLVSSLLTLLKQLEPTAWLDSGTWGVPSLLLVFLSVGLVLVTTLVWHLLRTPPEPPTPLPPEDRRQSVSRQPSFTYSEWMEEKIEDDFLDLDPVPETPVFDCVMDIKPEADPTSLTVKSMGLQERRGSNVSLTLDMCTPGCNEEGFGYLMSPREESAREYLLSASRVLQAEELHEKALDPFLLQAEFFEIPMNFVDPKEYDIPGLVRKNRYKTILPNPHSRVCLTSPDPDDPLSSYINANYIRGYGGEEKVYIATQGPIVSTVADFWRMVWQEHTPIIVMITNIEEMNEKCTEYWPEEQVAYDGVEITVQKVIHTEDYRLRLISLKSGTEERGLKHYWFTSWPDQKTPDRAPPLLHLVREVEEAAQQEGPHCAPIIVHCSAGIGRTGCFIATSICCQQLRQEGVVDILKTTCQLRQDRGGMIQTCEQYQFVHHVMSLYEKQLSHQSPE
Sequence of Intestinal-type alkaline phosphatase (P09923 whole entry): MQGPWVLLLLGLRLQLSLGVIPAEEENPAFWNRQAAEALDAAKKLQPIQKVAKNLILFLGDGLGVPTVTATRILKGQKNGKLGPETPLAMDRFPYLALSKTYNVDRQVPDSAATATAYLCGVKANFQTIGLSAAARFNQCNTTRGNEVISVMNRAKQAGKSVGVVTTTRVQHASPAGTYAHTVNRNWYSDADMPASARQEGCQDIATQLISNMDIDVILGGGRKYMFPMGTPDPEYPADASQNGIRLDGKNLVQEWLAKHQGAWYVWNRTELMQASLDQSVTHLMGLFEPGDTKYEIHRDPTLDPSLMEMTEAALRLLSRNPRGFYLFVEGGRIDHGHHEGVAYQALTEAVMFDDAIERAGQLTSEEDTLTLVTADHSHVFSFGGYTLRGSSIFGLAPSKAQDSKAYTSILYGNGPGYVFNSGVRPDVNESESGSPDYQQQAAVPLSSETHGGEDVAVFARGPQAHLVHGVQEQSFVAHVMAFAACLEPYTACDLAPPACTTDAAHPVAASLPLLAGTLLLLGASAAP
Sequence of Tyrosine-protein phosphatase non-receptor type 12 (Q05209 whole entry): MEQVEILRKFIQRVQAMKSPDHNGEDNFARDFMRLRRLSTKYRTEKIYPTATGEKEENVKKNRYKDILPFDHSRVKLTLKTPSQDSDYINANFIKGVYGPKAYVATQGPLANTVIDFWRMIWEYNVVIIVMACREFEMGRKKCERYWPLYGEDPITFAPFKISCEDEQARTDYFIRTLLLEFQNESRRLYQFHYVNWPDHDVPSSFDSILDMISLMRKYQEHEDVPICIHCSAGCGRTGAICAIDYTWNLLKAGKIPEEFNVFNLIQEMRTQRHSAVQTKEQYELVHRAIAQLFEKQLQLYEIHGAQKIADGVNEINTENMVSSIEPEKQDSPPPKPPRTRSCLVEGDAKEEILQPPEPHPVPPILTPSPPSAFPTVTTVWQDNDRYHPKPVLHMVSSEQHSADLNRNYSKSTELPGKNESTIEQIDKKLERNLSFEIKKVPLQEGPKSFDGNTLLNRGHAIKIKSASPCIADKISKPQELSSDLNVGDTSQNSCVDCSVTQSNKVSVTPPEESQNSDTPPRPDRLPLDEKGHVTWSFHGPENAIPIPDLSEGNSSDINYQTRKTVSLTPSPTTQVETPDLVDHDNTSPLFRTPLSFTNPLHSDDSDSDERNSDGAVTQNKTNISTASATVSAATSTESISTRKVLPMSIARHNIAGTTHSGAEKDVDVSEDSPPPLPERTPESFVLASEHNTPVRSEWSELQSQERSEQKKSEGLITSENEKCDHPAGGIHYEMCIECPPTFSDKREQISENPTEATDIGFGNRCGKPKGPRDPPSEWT
Sequence of Induced myeloid leukemia cell differentiation protein Mcl-1 (Q07820 whole entry): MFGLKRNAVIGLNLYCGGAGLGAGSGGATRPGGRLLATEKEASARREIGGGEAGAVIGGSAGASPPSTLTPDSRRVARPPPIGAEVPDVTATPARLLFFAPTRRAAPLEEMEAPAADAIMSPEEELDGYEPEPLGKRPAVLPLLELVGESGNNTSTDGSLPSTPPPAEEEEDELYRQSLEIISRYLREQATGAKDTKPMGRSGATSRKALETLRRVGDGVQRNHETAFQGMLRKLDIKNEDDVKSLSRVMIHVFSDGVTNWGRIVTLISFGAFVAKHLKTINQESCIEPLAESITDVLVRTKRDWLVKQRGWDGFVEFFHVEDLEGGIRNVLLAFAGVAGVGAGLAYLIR

For `O=C(N/N=C/c1ccc2cccnc2c1)c1nc(O)c2ccccc2n1`, the EC50 [1] was 7.78 µM (active).

With `CCc1ccc(NC2=NC(=O)/C(=C/c3ccc(OCC(=O)O)cc3)S2)cc1` the IC50 [2] was > 100 µM (inactive), the IC50 [3] was > 100 µM (inactive) and the IC50 [4] was 4.53 µM (active). The IC50 [5] was 24.3 µM (inactive), the IC50 [6] was 9.52 µM (active) and the IC50 [7] was 31.7 µM (active). The IC50 [8] was 18.9 µM (active), the IC50 [9] was 3.25 µM (active) and the IC50 [10] was 12.9 µM (active). The IC50 [11] was 10.4 µM (active) and the IC50 [12] was 12.6 µM (active).

`Cc1cc(C)c2nc(-c3ccccn3)cc(C(=O)Nc3ccc(S(=O)(=O)Nc4onc(C)c4C)cc3)c2c1` was tested, and the IC50 (Cannabinoid receptor 2 [13]) was > 32 µM (inactive), the EC50 (Cannabinoid receptor 2 [14]) was > 32 µM (inactive) and the IC50 [15] was 4.01 µM (active). For the same compound, the IC50 [5] was 28.3 µM (inactive), the EC50 (Cannabinoid receptor 1 [16]) was > 32 µM (inactive) and the IC50 [17] was > 32 µM (inactive). The IC50 [18] was < 0.5 µM (active), the IC50 (Cannabinoid receptor 2 [19]) was > 32 µM (inactive) and the IC50 (Cannabinoid receptor 1 [20]) was 24.6 µM (inactive). The IC50 [6] was 2.95 µM (active), the IC50 [21] was 0.263 µM (active) and the EC50 (Cannabinoid receptor 2 [22]) was > 32 µM (inactive). The EC50 [23] was > 32 µM (inactive), the IC50 [24] was 0.136 µM (active) and the IC50 [11] was 2.73 µM (active). The AC50 (Caspase-6) was 14.7 µM (active) and the IC50 (Cannabinoid receptor 1 [25]) was > 32 µM (inactive).
